The target in one data set is T1, sigma-2 receptor (Rattus norvegicus, UniProt Q5U3Y7).
T1 sequence (Q5U3Y7 1-176): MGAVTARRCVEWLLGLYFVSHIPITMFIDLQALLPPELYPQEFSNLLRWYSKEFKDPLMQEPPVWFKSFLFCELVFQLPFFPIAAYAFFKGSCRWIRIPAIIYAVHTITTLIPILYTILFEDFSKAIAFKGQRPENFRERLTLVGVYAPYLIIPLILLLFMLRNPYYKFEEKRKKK
On the set-up: other: known prior art compounds, published studies. Particulars: cited from earlier work.

The subject of data set [1] is Abeta oligomer-induced membrane trafficking deficits in primary hippocampal neurons. The data set can be described thus: Membrane trafficking/exocytosis (MTT) assay. The note with it: for EC50: known prior art compounds, read-out: Inhibition Abeta oligomer-induced Membrane Trafficking EC50. In kind it is cell-based, rat. The method, then:
The methods used to generate the results were as follows in the Membrane Trafficking/Exocytosis (MTT) assay.
Primary hippocampal neurons from E18 Sprague-Dawley rat embryos were plated at optimized concentrations in 384 well plates in NB media (Invitrogen). Neurons were maintained in cultures for 3 weeks, with twice weekly feeding of NB media with N2 supplement (Invitrogen).
A test compound was added to cells at concentrations ranging from 100 uM to 0.001 nM followed by addition of vehicle or Abeta oligomer preparations (3 μM total Abeta protein concentration), and incubated for 1 to 24 hr at 37° C. in 5% CO2. MTT reagent (3-(4,5-dimethylthizaol-2-yl)-2,5diphenyl tetrazolium bromide) (Roche Molecular Biochemicals) was reconstituted in phosphate buffered saline to 5 mg/mL. 10 μl, of MTT labeling reagent is added to each well and incubated at 37° C. for 1 h, then imaged. Exocytosis was assessed by automated microscopy and image processing to quantify the amount of endocytosed and exocytosed formazan.
Each assay plate was formatted so that compounds are tested with and without Abeta oligomer on each plate.

Data set [2] is described as follows: Drug-like properties of known compounds (BBB, oxidative metabolism). The note with it: (Oxidative substr.; Not BBB, Ox Sub.); first line given.
In the next data set the test system is Na + ch2. The note with it: cited from earlier work.
In the next data set the target is Sigma-2 receptors. Particulars: cited from earlier work; for Ki: Table 11E, clinical compounds, second figure of S1/S2, read-out: Sigma Affinity (S2).
Data set [3] has as its target Sigma-1 receptors. The note with it: cited from earlier work; for Ki: Table 11E, clinical compounds, first figure of S1/S2, read-out: Sigma Affinity (S1); for Sigma 1 (Type of Activity): known prior art compounds.
The test system of another data set is muscarinic M1-M4. The note with it: cited from earlier work.
A further data set addresses NMDAR2B (Homo sapiens, UniProt Q13224). Particulars: cited from earlier work.
For data set [4] the following is noted: list wraps over the rows below; first line given; cited from earlier work.
The target in data set [5] is T2, Sigma-1 receptors (UniProt Q60492).
T2 construct: other: known prior art compounds, published studies
The note with it: cited from earlier work.

Data set [6] concerns Abeta oligomer-induced synapse loss in primary hippocampal neurons. The data set is described as follows: Synapse loss assay. In kind it is cell-based, rat. The method, then:
In this assay, Abeta oligomers were brought in contact with mature primary neurons in culture and their binding was determined by immunohistochemistry (anti-Abeta antibody) and quantified by image processing. The amount of Abeta in neuronal dendrites is assessed by counting the number of labeled puncta on the neuritis. […] This labeling is associated with synapses, co-localizing with the post-synaptic scaffold protein PSD-95 (Lacor et al., '04). […] The number of synapses can also be quantified in this assay by immunofluorochemistry. Similar procedures for binding assays can be found in the literature. […] Review.
Primary hippocampal neuronal culture was established as in the membrane trafficking assay above. […] Pretreatment with compounds to be tested lasted for 1 hr and addition of Abeta oligomers or no oligomer (vehicle alone) in a final concentration of 70 ul was followed by incubation for an additional 23 hrs.
The plates were then washed 3× with PBS for 5 min each. The plates were blocked at RT for 1 hr in 5% goat serum and 0.5% Triton X-100 in PBS. […] Primary antibodies were incubated overnight at 4° C. The plates were then washed 3× with PBS for 5 min each. […] Secondary antibodies were incubated at RT for 1 hr. The plates were washed once with PBS. DAPI (4′,6-diamidino-2-phenylindole, Invitrogen) was then applied at 0.03 ug/ul and incubated at RT for 5 min, then washed with PBS.

Data set [7] has as its system SKOV-3 human ovarian cancer cell line. The data set is described as follows: MTS tumor cell viability assay. In kind it is cell-based. The note with it: for Action: by EC50 relative to siramesine; for IC50: Homo sapiens, SK-OV-3, tumor cell viability, 48 hrs. The protocol: The cytotoxicity of compounds shown below was determined using the CellTiter96 Aqueous One Solution Assay (Promega, Madison, Wis.). […] The plate was read at 490 nm in a Victor3 plate reader (PerkinElmer Life and Analytical Sciences, Shelton, Conn.). The EC^50 value, defined as the concentration of the sigma ligand required to inhibit cell viability by 50% relative to untreated cells, was determined from the dose response curve for each cell line.

The subject of data set [8] is caspase-3 in SKOV-3 human ovarian cancer cells. The data set can be described thus: Caspase-3 activity in tumor cells. In kind it is cell-based.
Data set [9] has as its system caspase-3 in neuronal cultures. The data set can be described thus: Caspase-3 activity in neurons. The format is cell-based.
In another data set the test system is K+ ch. The note with it: b58; cited from earlier work.
The mark [10] stands for this setting: Table 11C, read-out: S2 binding Ki.
Where [11] appears, read: Table 11D, read-out: Sigma-2 Receptor Ki.
Setting [12] is: known prior art compounds, published studies, read-out: Sigma 2 Binding Ki.
Where [13] appears, read: Table 11C, read-out: S1 binding Ki.
[14] abbreviates: Table 11D, read-out: Sigma-1 Receptor Ki.
[15] abbreviates: known prior art compounds, published studies, read-out: Sigma 1 Binding Ki.
Where [16] appears, read: Table 11D, read-out: Membrane trafficking IC50.
Where [17] appears, read: read-out: S2 binding Ki, Table 11C.
[18] abbreviates: Rattus norvegicus, Hippocampal neuron, Table 11C.

Structures are written as SMILES. Where two headings read alike, the source gives them in different places.

In general, IC50 refers to the midpoint of a concentration-inhibition curve. The term EC50 denotes the concentration needed to bring the measured effect to its halfway point.

Sequence of NMDAR2B (Q13224 27-1484, species assumed, other chains not shown): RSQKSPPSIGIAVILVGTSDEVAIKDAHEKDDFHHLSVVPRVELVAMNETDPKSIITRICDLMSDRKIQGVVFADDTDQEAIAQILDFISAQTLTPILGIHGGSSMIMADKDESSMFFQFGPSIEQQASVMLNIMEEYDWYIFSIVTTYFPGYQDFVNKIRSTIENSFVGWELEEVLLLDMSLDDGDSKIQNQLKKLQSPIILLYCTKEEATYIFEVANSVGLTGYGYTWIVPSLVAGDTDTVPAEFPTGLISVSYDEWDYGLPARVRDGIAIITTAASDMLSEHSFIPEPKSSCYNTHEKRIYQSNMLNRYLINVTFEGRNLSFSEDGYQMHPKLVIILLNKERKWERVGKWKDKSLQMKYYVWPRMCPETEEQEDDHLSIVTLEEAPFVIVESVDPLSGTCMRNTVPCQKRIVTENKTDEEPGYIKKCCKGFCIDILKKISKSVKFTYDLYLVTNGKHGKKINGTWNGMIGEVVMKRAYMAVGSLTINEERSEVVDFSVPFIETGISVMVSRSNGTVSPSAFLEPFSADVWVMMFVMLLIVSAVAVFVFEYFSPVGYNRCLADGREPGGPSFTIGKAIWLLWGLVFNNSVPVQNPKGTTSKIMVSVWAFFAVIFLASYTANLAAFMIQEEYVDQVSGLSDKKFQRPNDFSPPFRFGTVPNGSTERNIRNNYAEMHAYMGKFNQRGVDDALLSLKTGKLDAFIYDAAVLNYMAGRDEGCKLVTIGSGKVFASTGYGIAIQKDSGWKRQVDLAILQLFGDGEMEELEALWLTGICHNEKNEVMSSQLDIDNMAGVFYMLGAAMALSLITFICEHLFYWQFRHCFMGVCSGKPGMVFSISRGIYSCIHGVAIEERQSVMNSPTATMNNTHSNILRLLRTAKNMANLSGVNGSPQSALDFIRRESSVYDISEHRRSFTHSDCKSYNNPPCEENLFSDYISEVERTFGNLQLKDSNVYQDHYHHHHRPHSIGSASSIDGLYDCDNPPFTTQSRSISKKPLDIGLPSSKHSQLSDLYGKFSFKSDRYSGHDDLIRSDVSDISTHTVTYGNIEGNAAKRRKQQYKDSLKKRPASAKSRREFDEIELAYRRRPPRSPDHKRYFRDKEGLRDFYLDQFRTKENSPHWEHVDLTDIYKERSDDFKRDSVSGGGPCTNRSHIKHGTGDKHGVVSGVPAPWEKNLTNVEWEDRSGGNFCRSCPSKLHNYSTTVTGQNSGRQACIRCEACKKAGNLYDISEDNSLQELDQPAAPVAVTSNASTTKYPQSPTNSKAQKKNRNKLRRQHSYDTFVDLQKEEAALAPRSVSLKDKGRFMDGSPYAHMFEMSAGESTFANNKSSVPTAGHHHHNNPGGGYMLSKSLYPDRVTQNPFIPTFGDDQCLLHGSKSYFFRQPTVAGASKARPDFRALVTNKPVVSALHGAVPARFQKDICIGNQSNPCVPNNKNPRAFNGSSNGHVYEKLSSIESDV

Turning to `CC(C)=CCN1CCC2(C)c3cc(O)ccc3CC1C2C` (single isomer, unassigned; (+)) [(+) Pentazocine, (+)-pentazocine], at sigma-2 receptor (read-out: Sigma-2 Receptor Ki, Table 11D), the Ki was over 5000 nM. In addition, the concentration for half-maximal inhibition (IC50) in data set [1] (Rattus norvegicus, Hippocampal neuron, read-out: Membrane trafficking IC50 (uM)) is 7.6 µM. In data set [1] (Table 11D), the “Functional Neuronal Phenotype” value is “Antagonist”. For the same compound, the Drug-like properties result in data set [2] is reported as “Yes”.
For `CN(C)CC1COC(c2ccccc2)(c2ccccc2)C1` (stereo not drawn) [Anavex 1-41], the “Other Targets: Na + ch2” value with Na + ch2 is on record as “ch2 (>10 uM)”. Besides, the Ki on Sigma-2 receptors is over 10 µM; at Sigma-1 receptors [3], 7 nM. For the same compound, the “Other Targets: muscarinic M1-M4” value in the data set on muscarinic M1-M4 is listed as “(18-114 nM), Na +”.
In the case of `CN(C)CC1CCOC1(c1ccccc1)c1ccccc1` (stereo not drawn) [Anavex 2-73], the “Other Targets: Na + ch2” value with Na + ch2 is given as “(5 uM)”. For the same compound, the Ki on Sigma-2 receptors was over 20 µM; on Sigma-1 receptors [3], 860 nM. For the same compound, the “Other Targets: NMDAR2B” value on NMDAR2B is recorded as “NMDAR2B (8 uM”. For the same compound, the “Other Targets: muscarinic M1-M4” value with muscarinic M1-M4 was “(3-5 uM),”.
For the compound `CN(C)CCN(C)CCc1ccc(Cl)c(Cl)c1` [BD1047], the Ki on sigma-2 receptor (setting [10]) was 47 nM; on sigma-2 receptor (setting [11]), 47 nM; at sigma-2 receptor (setting [12]), 47 nM; on Sigma-1 receptors [5] (setting [13]) it was 0.9 nM; at Sigma-1 receptors [5] (setting [14]) it was 0.9 nM; at Sigma-1 receptors [5] (setting [15]), 0.9 nM. Also, the Selectivity other activities result in [4] is “D2, β3-AR”. The “Sigma 1 (Type of Activity)” value in the data set with Sigma-1 receptors [3] is reported as “(antagonist)”. Moreover, the “Max Inhibition of Abeta (%)” value in data set [1] was found to be 100%. Moreover, the “Functional Neuronal Phenotype” value in [1] (Table 11C) and in data set [1] (Table 11D) was “Antagonist” in each case. Further, the EC50 in data set [1] (Table 11C) is 2400 nM. In data set [1] (setting [16]), the IC50 worked out at 2.4 µM.
As for `O=C(CCCN1CCC(O)(c2ccc(Cl)cc2)CC1)c1ccc(F)cc1` [Haloperidol, haloperidol], the “Sigma 1 (Type of Activity)” value in the data set on Sigma-1 receptors [3] is listed as “(antagonist)”. Further, the “Max Inhibition of Abeta (%)” value in [1] came out at 100%. In addition, the “Functional Neuronal Phenotype” value in data set [1] (Table 11C) and in [1] (Table 11D) was “Antagonist” in each case. Moreover, the “Effect on Abeta oligomer-induced synapse loss” value in data set [6] is “completely eliminated synapse loss”. In addition, in data set [2], the Drug-like properties entry is on record as “Yes”.
For `COc1cc2c(cc1OC)CN(CCCCNC(=O)c1cc(C)ccc1OC)CC2` [RHM-1, N-[4-(3,4-dihydro-6,7-dimethoxyisoquinolin-2(1H)-yl)butyl]-2-methoxy-5-methylbenzamide], the Action result in data set [7] is “Antagonist”. In data set [8], the “Block of SV-119-induced caspase-3 activation in tumor cells” value is “do not block caspase-3 activation” and the “Caspase-3 activity induced in tumor cells” value is reported as “did not induce caspase-3 activity”. In addition, the “Effect on Abeta oligomer trafficking deficits over the concentrations tested” value (“Effect … over the concentrations tested” for short) in data set [1] is given as “blocks oligomer-induced trafficking deficits at all concentrations tested”. The “Caspase-3 activity induced in neurons” value in data set [9] is recorded as “did not induce caspase-3 activity”. Also, the “Nuclear morphology / nuclear intensity in neurons” value with neuronal cultures is “did not decrease nuclear intensity”.
Regarding `CCC(Oc1ccc(Cl)cc1)C(=O)OC1CC2CCC(C1)N2C` (stereo not drawn) [SM-21], the Ki at sigma-2 receptor (setting [10]) is 145 nM; on sigma-2 receptor (setting [11]), 145 nM; on sigma-2 receptor (setting [12]), 145 nM; on Sigma-1 receptors [5] (setting [13]), 1050 nM; on Sigma-1 receptors [5] (setting [14]), 1050 nM; on Sigma-1 receptors [5] (setting [15]) it was 1050 nM. Moreover, in data set [4], the Selectivity other activities result is “Muscarinic”. Also, the “Sigma 1 (Type of Activity)” value in the data set with Sigma-1 receptors [3] is recorded as “(antagonist)”. Further, the “Max Inhibition of Abeta (%)” value in data set [1] came out at 65%. Moreover, the “Functional Neuronal Phenotype” value in data set [1] (Table 11C) and in data set [1] (Table 11D) was “Antagonist” each time. Further, in data set [1] (Table 11C), the EC50 stood at 2200 nM. Moreover, in [1] (setting [16]), the IC50 was 2.2 µM. Further, in data set [6] (b801), the “Abeta oligomer-induced synapse loss eliminated / recovery” value is recorded as 20%.
For `COc1ccc(C)cc1NC(=O)OC1CC2CCCC(C1)N2CCCCCCN` (stereo not drawn) [SV-119], in data set [7], the IC50 stood at 21.7 ± 2.9 µM and the Action result is “Full agonist”. Further, the Ki on sigma-2 receptor (setting [17]) was 8 nM. In addition, in data set [8], the “Caspase-3 activity induced in tumor cells” value was “caspase-3 activation”. At Sigma-1 receptors [5] (setting [13]), the Ki is 1400 nM. Moreover, the “Effect … over the concentrations tested” value in [1] was “blocks Abeta oligomer trafficking deficits at low concentrations, but causes cellular toxicity at high concentrations”. In addition, the concentration giving a half-maximal response (EC50) in data set [1] (setting [18]) turned out to be 2600 nM. In data set [1] (Table 11C), the “Functional Neuronal Phenotype” value is recorded as “Agonist”. For the same compound, the “Caspase-3 activity induced in neurons” value in data set [9] was “caspase-3 activation”. The “Nuclear morphology / nuclear intensity in neurons” value with neuronal cultures is reported as “caused significant abnormal nuclear morphology”.
Consider `C[C@@H]([C@@H](O)c1ccc(O)cc1)N1CCC(Cc2ccccc2)CC1` [Threo-ifenprodil (TIF), Threo-ifenprodil], for which the “Sigma 2 type of activity” value in the data set with Sigma-2 receptors (in brackets after the Ki) is “agonist”. Further, in data set [1], the “Effect … over the concentrations tested” value is listed as “does not cause apoptosis, affect trafficking or interfere with Abeta oligomer-induced trafficking deficits when dosed alone” and the “Max Inhibition of Abeta (%)” value came to 39%. Besides, in data set [1] (Table 11C), the “Functional Neuronal Phenotype” value is on record as “Inactive” and the EC50 is over 20000 nM. Further, the “Affinity K+ ch” value with K+ ch is reported as 88 nM.
Take `COc1ccc(C)cc1NC(=O)OC1CC2CCCC(C1)N2Cc1ccc(N(C)C)cc1` (stereo not drawn) [WC-26]: in data set [7], the half-maximal inhibitory concentration (IC50) stood at 65.6 ± 6.3 µM and the Action entry was “Partial agonist”. The Ki on sigma-2 receptor (setting [17]) is 3 nM. The Ki on Sigma-1 receptors [5] (setting [13]) was 1400 nM. In addition, the EC50 in [1] (setting [18]) was 1600 nM. In data set [1] (Table 11C), the “Functional Neuronal Phenotype” value was “Agonist”. Besides, the “Nuclear morphology / nuclear intensity in neurons” value in the data set with neuronal cultures is listed as “caused significant abnormal nuclear morphology”.

These data come from patent publication US20140378460A1, “COMPOSITIONS AND METHODS FOR TREATING NEURODEGENERATIVE DISEASE” (COGNITION THERAPEUTICS, INC., priority 2011, published 2014).
